Where a name gives a salt, the structure may show the parent alone. Read-outs that look alike come from different tables or passages of the source.
How the values were obtained:
Experiment in all cases: In Vitro Anti-Bacterial Activity Test (MIC, agar dilution)
Type in all cases: cell-based
[1] = test system: Klebsiella oxytoca 1082E; details: Klebsiella oxytoca 1082E; Muller-Hinton agar, 37° C., 18 hours; read-out: MIC
Outline: (§1)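 MIC was determined by agar dilution on Mueller-Hinton agar. Each strain was inoculated at 10^7 C.F.U./ml, and growth was observed after 18 hours at 37° C, with ciprofloxacin as control agent.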

[2] = test system: Pseudomonas aeruginosa 1771; details: Pseudomonas aeruginosa 1771; Muller-Hinton agar, 37° C., 18 hours; read-out: MIC
Outline: as §1

[3] = test system: Escherichia coli DC2
Outline: as §1

[4] = test system: Pseudomonas aeruginosa 9027; details: Muller-Hinton agar, 37° C., 18 hours, read-out: MIC
Outline: as §1

[5] = test system: Streptococcus faecium MD8b; details: Enterococcus faecium, Muller-Hinton agar, 37° C., 18 hours, read-out: MIC
Outline: as §1

[6] = test system: Salmonella typhimurium; details: Salmonella enterica; Salmonella typhimurium; Muller-Hinton agar, 37° C., 18 hours; read-out: MIC
Outline: as §1

[7] = test system: Streptococcus pyogenes 308A; details: Muller-Hinton agar, 37° C., 18 hours, read-out: MIC
Outline: as §1

[8] = test system: Escherichia coli 1507E; details: Muller-Hinton agar, 37° C.
Outline: as §1

[9] = test system: Enterobacter cloacae P99; details: Enterobacter cloacae, P99, 18 h
Outline: (§2)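 Read-out is visual growth inhibition on compound-containing Muller-Hinton agar, giving the MIC. Bacteria (10^7 C.F.U./ml) incubate 18 hours at 37° C.; ciprofloxacin is included as comparator drug.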

[10] = test system: Enterobacter cloacae 1321E
Outline: as §1

[11] = test system: Escherichia coli DC0; details: Muller-Hinton agar, 37° C., 18 hours, read-out: MIC
Outline: as §1

[12] = test system: Staphylococcus aureus 285; details: Staphylococcus aureus, 285, 18 h, Staphylococcus aureus 285; Muller-Hinton agar, 37° C., 18 hours; read-out: MIC
Outline: as §1

[13] = test system: Klebsiella aerogenes 1522E; details: Klebsiella aerogenes, 1522E, 18 h
Outline: as §1

[14] = test system: Escherichia coli 078
Outline: as §1

[15] = test system: Staphylococcus aureus SG511; details: Staphylococcus aureus SG511; Muller-Hinton agar, 37° C., 18 hours; read-out: MIC
Outline: as §1

[16] = test system: Escherichia coli TEM; details: Escherichia coli, 18 h, Muller-Hinton agar, 37° C.
Outline: as §2

[17] = test system: Streptococcus pyogenes 77A; details: Streptococcus pyogenes 77A; Muller-Hinton agar, 37° C., 18 hours; read-out: MIC
Outline: as §1

[18] = test system: Staphylococcus aureus 503; details: Staphylococcus aureus 503; Muller-Hinton agar, 37° C., 18 hours; read-out: MIC
Outline: as §1

[19] = test system: Pseudomonas aeruginosa 1592E; details: Muller-Hinton agar, 37° C., 18 hours, read-out: MIC
Outline: as §1

[20] = test system: Pseudomonas aeruginosa 1771M; details: Pseudomonas aeruginosa, 1771M, 18 h, Muller-Hinton agar, 37° C.
Outline: as §1

[21] = Klebsiella aerogenes 1522E, Muller-Hinton agar, 37° C., 18 hours, read-out: MIC
[22] = Enterobacter cloacae 1321E, Muller-Hinton agar, 37° C., 18 hours, read-out: MIC
[23] = Escherichia coli 078, Muller-Hinton agar, 37° C., 18 hours, read-out: MIC

Compound | MIC [1] | MIC [2] | MIC ([3]; Escherichia coli, DC2, 18 h) | MIC [4] | MIC [5] | MIC [6] | MIC [7] | MIC ([8]; Escherichia coli, 1507E, 18 h) | MIC [9] | MIC [11] | MIC [12] | MIC [13, 21] | MIC ([14]; Escherichia coli, 078, 18 h) | MIC [15] | MIC [16] | MIC [17] | MIC [18] | MIC [19] | MIC [20] | MIC [10, 22] | other results
NC1CCN(c2cc3c(cc2F)c(=O)c(C(=O)C[N+](=O)[O-])cn3-c2ccc(F)cc2F)C1 (centres unmarked) [Example 9, 1-(2,4-difluorophenyl)-6-fluoro-7-(3-aminopyrrolidin-1-yl)-3-(2-nitroacetyl)-1,4-dihydro-4-oxoquinoline hydrochloride] | < 0.002 µg/mL | 0.195 µg/mL | 0.025 µg/mL | 0.391 µg/mL | 0.195 µg/mL | 0.007 µg/mL | 0.195 µg/mL | 0.013 µg/mL | < 0.002 µg/mL | 0.195 µg/mL | 0.025 µg/mL | 0.004 µg/mL | 0.007 µg/mL | 0.025 µg/mL | < 0.002 µg/mL | 0.195 µg/mL | 0.013 µg/mL | 0.098 µg/mL | 0.049 µg/mL |  | MIC ([10]; Enterobacter cloacae, 1321E, 18 h): 0.007 µg/mL
CNCC1=CCN(c2c(F)cc3c(=O)c(C(=O)CC#N)cn(C4CC4)c3c2Cl)C1 [Example 43, 1-cyclopropyl-6-fluoro-8-chloro-7-(3-methylaminomethyl-2,5-dihydropyrrol-1-yl)-3-(2-cyanoacetyl)-1,4-dihydro-4-oxoquinoline hydrochloride] | 0.098 µg/mL | 3.12 µg/mL | 1.56 µg/mL | 6.25 µg/mL | 12.5 µg/mL | 0.195 µg/mL | 25 µg/mL |  | 0.391 µg/mL | 3.12 µg/mL | 3.12 µg/mL | 0.781 µg/mL |  | 3.12 µg/mL | 1.56 µg/mL | 25 µg/mL | 0.195 µg/mL | 12.5 µg/mL | 1.56 µg/mL | 0.049 µg/mL | MIC ([8]; 18 hours, read-out: MIC): 12.5 µg/mL; MIC [14, 23]: 6.25 µg/mL
CCOC(=O)C(C#N)C(=O)c1cn(C2CC2)c2c(Cl)c(N3CC=C(CNC)C3)c(F)cc2c1=O (centres unmarked) [Example 40, 1-cyclopropyl-6-fluoro-8-chloro-7-(3-methylaminomethyl-2,5-dihydropyrrol-1-yl)-3-(2-cyano-2-ethoxycarbonylacetyl)-1,4-dihydro-4-oxoquinoline hydrochloride] | 0.049 µg/mL | 6.25 µg/mL |  | 12.5 µg/mL | 12.5 µg/mL | 0.195 µg/mL | 25 µg/mL | 0.781 µg/mL | 0.391 µg/mL | 6.25 µg/mL | 3.12 µg/mL |  | 0.098 µg/mL | 1.56 µg/mL | 0.391 µg/mL | 12.5 µg/mL | 1.56 µg/mL | 6.25 µg/mL | 3.12 µg/mL | 0.049 µg/mL | MIC ([3]; Escherichia coli DC2, Muller-Hinton agar, 37° C., 18 hours, read-out: MIC): 3.12 µg/mL; MIC [13]: 0.391 µg/mL
CCOC(=O)CC(=O)c1cn(C2CC2)c2cc(N3CCNCC3)c(F)cc2c1=O [Example 19, 1-cyclopropyl-6-fluoro-7-(piperazin-1-yl)-3-(2-ethoxycarbonylacetyl)-1,4-dihydro-4-oxoquinoline hydrochloride] | 0.013 µg/mL | 0.781 µg/mL | 0.391 µg/mL | 0.781 µg/mL | 0.781 µg/mL | 0.391 µg/mL | 3.12 µg/mL | 0.013 µg/mL | 0.013 µg/mL | 0.391 µg/mL | 1.56 µg/mL | 0.049 µg/mL |  | 0.391 µg/mL | 0.195 µg/mL | 1.56 µg/mL | 0.781 µg/mL | 1.56 µg/mL | 1.56 µg/mL | 0.013 µg/mL | MIC [14, 23]: 0.004 µg/mL

Source: patent US5409933A, “Quinoline derivatives and processes for preparing the same” (priority 1993, dated 1995)
